Data: ChEMBL document CHEMBL1133765, “QSAR model for drug human oral bioavailability” (J Med Chem, 2000)

Tests used:
physchem [1] = test: physchem
[2] = octanol/water
physchem [3] = conditions: octanol/water, pH 6.5
clinical [4] = conditions: human, in vivo, po
clinical [5] = conditions: human, in vivo, po; remark: listed apart in the source
clinical [6] = conditions: human, in vivo, po; remark: listed apart in the source
[7] = octanol/water; remark: listed apart in the source
physchem [8] = conditions: octanol/water

## COc1ccccc1N1CCN(CCCNc2cc(=O)n(C)c(=O)n2C)CC1
Physchem [1]
  pKa: 7.1
[2]
  delta logD: -0.52
Physchem [3]
  logD: 0.9
Clinical [4]
  bioavailability: 79%

## OCCN1CCN(CCC=C2c3ccccc3Sc3ccc(C(F)(F)F)cc32)CC1
Physchem [1]
  pKa: 8.1
[2]
  delta logD: -0.83
Physchem [3]
  logD: 2.88
Clinical [4]
  bioavailability: 79%

## CC(C)(C)NC[C@@H](O)COc1ccccc1C1CCCC1
Physchem [1]
  pKa: 9.3
[2]
  delta logD: -0.9
Physchem [3]
  logD: 1.35
Clinical [4]
  bioavailability: 79%

## CCCC(=O)Nc1ccc(OCC(O)CNC(C)C)c(C(C)=O)c1 (stereo not drawn) [ACEBUTOLOL]
Clinical [5]
  bioavailability: 49%

## CC(=O)Nc1ccc(O)cc1 [ACETAMINOPHEN]
[2]
  delta logD: 0
Physchem [3]
  logD: 0.51
Clinical [4]
  bioavailability: 79%

## CC[C@H]1[C@@H]2C[C@H]3[C@@H]4N(C)c5ccccc5[C@]45C[C@@H]([C@@H]2[C@H]5O)N3[C@@H]1O [AJMALINE]
Physchem [1]
  pKa: 6.5
[2]
  delta logD: -0.25
Physchem [3]
  logD: 2.42
Clinical [5]
  bioavailability: 49%

## CC(C)(C)NCC(O)c1ccc(O)c(CO)c1 (stereo not drawn) [ALBUTEROL]
[2]
  delta logD: -0.9
Physchem [3]
  logD: -2.69
Clinical [5]
  bioavailability: 49%

## CC(C)COCC(CN(Cc1ccccc1)c1ccccc1)N1CCCC1 (stereo not drawn) [BEPRIDIL]
Physchem [1]
  pKa: 9.3
[2]
  delta logD: -0.9
Physchem [3]
  logD: 1.1
Clinical [4]
  bioavailability: 79%

## COc1ccc(CCNCC(O)COc2cccc(C)c2)cc1OC (stereo not drawn) [BEVANTOLOL]
Physchem [1]
  pKa: 8.4
[2]
  delta logD: -0.87
Physchem [3]
  logD: 1.11
Clinical [4]
  bioavailability: 79%

## Nc1c(CC(=O)O)cccc1C(=O)c1ccc(Br)cc1 [BROMFENAC]
Physchem [1]
  pKa: 4.3
[2]
  delta logD: 0.9
Physchem [3]
  logD: 1.39
Clinical [4]
  bioavailability: 79%

## Cc1nnc2n1-c1sc(Br)cc1C(c1ccccc1Cl)=NC2 [BROTIZOLAM]
Physchem [1]
  pKa: 6.2
[2]
  delta logD: -0.14
Physchem [3]
  logD: 2.63
Clinical [4]
  bioavailability: 79%

## CCc1cccc2cc(C(O)CNC(C)(C)C)oc12 (stereo not drawn) [BUFURALOL]
Physchem [1]
  pKa: 9
[2]
  delta logD: -0.89
Physchem [3]
  logD: 1
Clinical [4]
  bioavailability: 79%

## CC(C)(C)NCC(O)COc1cccc2c1CCCC2=O (stereo not drawn) [BUNOLOL]
Physchem [1]
  pKa: 9.3
[2]
  delta logD: -0.9
Physchem [3]
  logD: -0.4
Clinical [4]
  bioavailability: 79%

## COc1ccccc1OCCNCC(O)COc1cccc2[nH]c3ccccc3c12 (stereo not drawn) [CARVEDILOL]
Physchem [1]
  pKa: 9.3
[2]
  delta logD: -0.9
Physchem [3]
  logD: 1.31
Clinical [5]
  bioavailability: 49%

## NS(=O)(=O)c1cc2c(cc1Cl)N=CNS2(=O)=O [CHLOROTHIAZIDE]
Physchem [1]
  pKa: 6.7
[2]
  delta logD: 0.57
Physchem [3]
  logD: -0.45
Clinical [5]
  bioavailability: 49%

## NS(=O)(=O)c1cc(C2(O)NC(=O)c3ccccc32)ccc1Cl (stereo not drawn) [CHLORTHALIDONE]
[2]
  delta logD: 0
Physchem [3]
  logD: 0.22
Clinical [4]
  bioavailability: 79%

## CN/C(=N/CCSCc1nc[nH]c1C)NC#N [CIMETIDINE]
Physchem [3]
  logD: -0.08
Clinical [4]
  bioavailability: 79%

## COc1cc(N)c(Cl)cc1C(=O)NC1CCN(CCCOc2ccc(F)cc2)CC1OC (stereo not drawn) [CISAPRIDE]
Physchem [1]
  pKa: 7.7
[2]
  delta logD: -0.75
Physchem [3]
  logD: 1.79
Clinical [5]
  bioavailability: 49%

## CN1CCC[C@@H]1CCO[C@](C)(c1ccccc1)c1ccc(Cl)cc1 [CLEMASTINE]
Physchem [1]
  pKa: 9.2
[2]
  delta logD: -0.89
Physchem [3]
  logD: 1.65
Clinical [5]
  bioavailability: 49%

## Cc1onc(-c2c(Cl)cccc2Cl)c1C(=O)N[C@@H]1C(=O)N2[C@@H]1SC(C)(C)[C@@H]2C(=O)O [DICLOXACILLIN]
Physchem [1]
  pKa: 2.8
[2]
  delta logD: 0.9
Physchem [3]
  logD: -0.79
Clinical [4]
  bioavailability: 79%

## COc1ccc([C@@H]2Sc3ccccc3N(CCN(C)C)C(=O)[C@@H]2OC(C)=O)cc1 [DILTIAZEM]
[2]
  delta logD: -0.75
Physchem [3]
  logD: 1.47
Clinical [5]
  bioavailability: 49%

## CCC(C)(C)NCC(O)COc1ccccc1C(=O)CCc1ccccc1 (stereo not drawn) [DIPRAFENONE]
Physchem [1]
  pKa: 9.2
[2]
  delta logD: -0.89
Physchem [3]
  logD: 0.59
Clinical [5]
  bioavailability: 49%

## COc1cc2nc(N3CCN(C(=O)C4COc5ccccc5O4)CC3)nc(N)c2cc1OC (stereo not drawn) [DOXAZOSIN]
Physchem [1]
  pKa: 6.5
[2]
  delta logD: -0.25
Physchem [3]
  logD: 1.14
Clinical [4]
  bioavailability: 79%

## CN(C)CCC=C1c2ccccc2COc2ccccc21 [DOXEPIN]
Physchem [1]
  pKa: 8
[2]
  delta logD: -0.82
Physchem [3]
  logD: 1.55
Clinical [5]
  bioavailability: 49%

## COc1ccc(C(=O)Nc2ccccc2CCC2CCCCN2C)cc1 (stereo not drawn) [ENCAINIDE]
Physchem [1]
  pKa: 10.2
[2]
  delta logD: -0.9
Physchem [3]
  logD: -0.34
Clinical [5]
  bioavailability: 49%

## CSc1ccc(C(=O)c2[nH]c(=O)[nH]c2C)cc1 [ENOXIMONE]
[2]
  delta logD: 0
Physchem [3]
  logD: 2.32
Clinical [4]
  bioavailability: 79%

## NC(N)=Nc1nc(CSCCC(N)=NS(N)(=O)=O)cs1 [FAMOTIDINE]
Physchem [1]
  pKa: 7.1
[2]
  delta logD: -0.52
Physchem [3]
  logD: -1.27
Clinical [5]
  bioavailability: 49%

## CC(C)n1c(/C=C/C(O)CC(O)CC(=O)O)c(-c2ccc(F)cc2)c2ccccc21 (stereo not drawn) [FLUVASTATIN]
Physchem [1]
  pKa: 4.5
[2]
  delta logD: 0.9
Physchem [3]
  logD: 1.42
Clinical [5]
  bioavailability: 49%

## COCCCC/C(=N\OCCN)c1ccc(C(F)(F)F)cc1 [FLUVOXAMINE]
Physchem [1]
  pKa: 9.5
Clinical [4]
  bioavailability: 79%

## CN(C)CCCN1c2ccccc2CCc2ccccc21 [IMIPRAMINE]
Clinical [5]
  bioavailability: 49%

## O=C(NC1CCN(CCc2c[nH]c3ccccc23)CC1)c1ccccc1 [INDORAMIN]
Physchem [1]
  pKa: 7.7
[2]
  delta logD: -0.75
Physchem [3]
  logD: 1.56
Clinical [5]
  bioavailability: 49%

## COc1ccc2c(c1)N(C[C@H](C)CN(C)C)c1ccccc1S2 [LEVOMEPROMAZINE]
Physchem [1]
  pKa: 9.2
[2]
  delta logD: -0.89
Physchem [3]
  logD: 1.98
Clinical [4]
  bioavailability: 79%

## CCOC(=O)C1(c2ccccc2)CCN(C)CC1 [MEPERIDINE]
[2]
  delta logD: -0.88
Physchem [3]
  logD: 0.25
Clinical [4]
  bioavailability: 79%

## COCC(=O)O[C@]1(CCN(C)CCCc2nc3ccccc3[nH]2)CCc2cc(F)ccc2[C@@H]1C(C)C [MIBEFRADIL]
Physchem [1]
  pKa: 9.3
[2]
  delta logD: -0.9
Physchem [3]
  logD: 1.25
Clinical [4]
  bioavailability: 79%

## O=C(NCCN1CCOCC1)c1ccc(Cl)cc1 [MOCLOBEMIDE]
Physchem [1]
  pKa: 6.2
[2]
  delta logD: -0.15
Physchem [3]
  logD: 1.26
Clinical [4]
  bioavailability: 79%

## CCOc1ccc2ccccc2c1C(=O)N[C@@H]1C(=O)N2[C@@H]1SC(C)(C)[C@@H]2C(=O)O [NAFCILLIN]
[2]
  delta logD: 0.9
Physchem [3]
  logD: -0.84
Clinical [5]
  bioavailability: 49%

## CN1CCC[C@H]1c1cccnc1 [NICOTINE]
[2]
  delta logD: -0.82
Physchem [3]
  logD: -0.34
Clinical [5]
  bioavailability: 49%

## Cc1cc2c(s1)Nc1ccccc1N=C2N1CCN(C)CC1 [OLANZAPINE]
Physchem [1]
  pKa: 8
[2]
  delta logD: -0.81
Physchem [3]
  logD: -0.02
Clinical [4]
  bioavailability: 79%

## COc1ccc2[nH]c([S+]([O-])Cc3ncc(C)c(OC)c3C)nc2c1 (stereo not drawn) [OMEPRAZOLE]
Physchem [1]
  pKa: 5.2
[2]
  delta logD: -0.02
Physchem [3]
  logD: 2.21
Clinical [4]
  bioavailability: 79%

## Cc1onc(-c2ccccc2)c1C(=O)N[C@@H]1C(=O)N2[C@@H]1SC(C)(C)[C@@H]2C(=O)O [OXACILLIN]
[2]
  delta logD: 0.9
Physchem [3]
  logD: -1.32
Clinical [5]
  bioavailability: 49%

## Fc1ccc([C@@H]2CCNC[C@H]2COc2ccc3c(c2)OCO3)cc1 [PAROXETINE]
Physchem [1]
  pKa: 11.2
[2]
  delta logD: -0.9
Physchem [3]
  logD: -1.96
Clinical [4]
  bioavailability: 79%

## CC(C)NCC(O)COc1cccc2[nH]ccc12 (stereo not drawn) [PINDOLOL]
Physchem [1]
  pKa: 8.8
[2]
  delta logD: -0.88
Clinical [4]
  bioavailability: 79%

## CC(CN1c2ccccc2Sc2ccccc21)N(C)C (stereo not drawn) [PROMETHAZINE]
[2]
  delta logD: -0.89
Physchem [3]
  logD: 2.21
Clinical [5]
  bioavailability: 49%

## CCC(=O)O[C@](Cc1ccccc1)(c1ccccc1)[C@H](C)CN(C)C [PROPOXYPHENE]
[2]
  delta logD: -0.89
Physchem [3]
  logD: 2.2
Clinical [5]
  bioavailability: 49%

## CC(C)NCC(O)COc1cccc2ccccc12 (stereo not drawn) [PROPRANOLOL]
[2]
  delta logD: -0.9
Clinical [5]
  bioavailability: 49%

## CNCCCC1c2ccccc2C=Cc2ccccc21 [PROTRIPTYLINE]
Physchem [1]
  pKa: 8.2
Clinical [6]; F
  bioavailability: > 80%
[7]
  delta logD: -0.84
Physchem [8]; pH 6.5, logD
  logD: 0.34

## CCN1CCC[C@H]1CNC(=O)c1c(O)c(Cl)cc(Cl)c1OC [RACLOPRIDE]
Physchem [1]
  pKa: 9.2
Clinical [4]
  bioavailability: 79%

## Nc1nc2ccc(OC(F)(F)F)cc2s1 [RILUZOLE]
Physchem [1]
  pKa: 6.5
Clinical [4]
  bioavailability: 79%

## Oc1ccc(C(O)C2CCCCN2)cc1O (stereo not drawn) [RIMITEROL]
Physchem [1]
  pKa: 9.9
Clinical [6]
  bioavailability: < 20%
[7]
  delta logD: -0.9
Physchem [8]; pH 6.5
  logD: -3.13

## CC(NCCc1ccc(O)cc1)C(O)c1ccc(O)cc1 (stereo not drawn) [RITODRINE]
[2]
  delta logD: -0.89
Physchem [3]
  logD: -1
Clinical [5]
  bioavailability: 49%

## CN(C/C=C/C#CC(C)(C)C)Cc1cccc2ccccc12 [TERBINAFINE]
Physchem [1]
  pKa: 8.5
Clinical [6]; F
  bioavailability: 49%
[7]
  delta logD: -0.86
Physchem [8]; pH 6.5, logD
  logD: 3.3

## CSc1ccc2c(c1)N(CCC1CCCCN1C)c1ccccc1S2 (stereo not drawn) [THIORIDAZINE]
[2]
  delta logD: -0.9
Physchem [3]
  logD: 2.9
Clinical [5]
  bioavailability: 49%

## CC(C)(C)NC[C@H](O)COc1nsnc1N1CCOCC1 [TIMOLOL]
Physchem [1]
  pKa: 9.3
[2]
  delta logD: -0.9
Physchem [3]
  logD: -0.99
Clinical [4]
  bioavailability: 79%

## COc1cccc(C2(O)CCCCC2CN(C)C)c1 (stereo not drawn) [TRAMADOL]
Physchem [1]
  pKa: 9.4
[2]
  delta logD: -0.9
Physchem [3]
  logD: 0.85
Clinical [4]
  bioavailability: 79%

## O=c1n(CCCN2CCN(c3cccc(Cl)c3)CC2)nc2ccccn12 [TRAZODONE]
Physchem [1]
  pKa: 6.7
Clinical [6]; F
  bioavailability: > 80%
[7]
  delta logD: -0.33
Physchem [8]; pH 6.5, logD
  logD: 1.47

## C[C@H](CS)C(=O)N1C[C@@H](Sc2ccccc2)C[C@H]1C(=O)O [ZOFENOPRILAT]
Physchem [1]
  pKa: 3.7
[2]
  delta logD: 0.9
Physchem [3]
  logD: -0.64
Clinical [4]
  bioavailability: 79%

## OCCN1CCN(CC/C=C2/c3ccccc3Sc3ccc(Cl)cc32)CC1 [ZUCLOPENTHIXOL]
Physchem [1]
  pKa: 8.1
[2]
  delta logD: -0.83
Physchem [3]
  logD: 2.71
Clinical [4]
  bioavailability: 79%
